Test results published in ChEMBL document CHEMBL3431459, “Roche carnitine palmitoyltransferase modulator screening data (supplementary data associated with the publication CHEMBL2216752)”.
In brackets after ≈: the same amount, converted by molar mass.

Legend:
[1] = target: T1, Carnitine O-palmitoyltransferase 2, mitochondrial (Rattus norvegicus, UniProt P18886); assay: (§1) SUPPLEMENTARY: Inhibition of Carnitine palmitoyltransferase 2
T1 sequence (P18886 whole entry): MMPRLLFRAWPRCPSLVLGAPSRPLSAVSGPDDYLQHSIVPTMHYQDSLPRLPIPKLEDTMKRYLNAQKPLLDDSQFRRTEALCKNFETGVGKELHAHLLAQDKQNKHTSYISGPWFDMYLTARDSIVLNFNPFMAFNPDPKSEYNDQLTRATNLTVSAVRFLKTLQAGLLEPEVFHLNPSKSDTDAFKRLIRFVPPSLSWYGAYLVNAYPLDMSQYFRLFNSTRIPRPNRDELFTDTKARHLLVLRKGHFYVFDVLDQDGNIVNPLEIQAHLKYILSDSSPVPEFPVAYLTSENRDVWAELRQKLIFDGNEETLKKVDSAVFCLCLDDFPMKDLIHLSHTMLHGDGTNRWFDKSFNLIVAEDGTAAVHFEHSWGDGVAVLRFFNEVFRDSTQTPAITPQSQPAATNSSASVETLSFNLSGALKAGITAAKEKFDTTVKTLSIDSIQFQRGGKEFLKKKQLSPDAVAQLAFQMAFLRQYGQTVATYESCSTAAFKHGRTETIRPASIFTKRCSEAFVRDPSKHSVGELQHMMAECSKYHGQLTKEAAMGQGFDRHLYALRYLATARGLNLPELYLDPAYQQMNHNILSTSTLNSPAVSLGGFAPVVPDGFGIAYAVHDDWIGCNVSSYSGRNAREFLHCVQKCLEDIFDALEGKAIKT

[2] = target: T2, Carnitine O-palmitoyltransferase 2, mitochondrial (Homo sapiens, UniProt P23786); assay: as §1
T2 sequence (P23786 whole entry): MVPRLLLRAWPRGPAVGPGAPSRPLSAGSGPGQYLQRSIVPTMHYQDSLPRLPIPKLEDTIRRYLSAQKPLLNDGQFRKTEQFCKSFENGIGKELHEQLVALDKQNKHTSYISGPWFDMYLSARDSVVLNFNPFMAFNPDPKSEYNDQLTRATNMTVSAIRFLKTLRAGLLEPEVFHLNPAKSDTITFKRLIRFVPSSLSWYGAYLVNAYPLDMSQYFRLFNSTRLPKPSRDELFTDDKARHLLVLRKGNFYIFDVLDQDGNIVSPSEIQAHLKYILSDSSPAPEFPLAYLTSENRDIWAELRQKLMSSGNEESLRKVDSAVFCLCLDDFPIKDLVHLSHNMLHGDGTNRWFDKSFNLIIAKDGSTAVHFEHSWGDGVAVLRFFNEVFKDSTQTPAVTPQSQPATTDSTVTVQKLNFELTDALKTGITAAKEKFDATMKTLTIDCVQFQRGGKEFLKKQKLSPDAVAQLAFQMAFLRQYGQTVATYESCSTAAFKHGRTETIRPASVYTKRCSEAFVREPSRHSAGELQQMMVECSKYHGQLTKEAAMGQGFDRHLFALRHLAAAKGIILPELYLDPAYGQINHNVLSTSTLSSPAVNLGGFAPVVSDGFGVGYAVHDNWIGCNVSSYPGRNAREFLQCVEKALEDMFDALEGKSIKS

[3] = SUPPLEMENTARY: Lipophilicity (log D) Determination by high-throughput shake-flask; assay type: physicochemical; details: octanol/water
[4] = SUPPLEMENTARY: Lyophilisation Solubility Assay (LYSA); assay type: physicochemical; details: read-out: Kinetic_solubility
[5] = target: T3, Carnitine O-palmitoyltransferase 1, liver isoform (Homo sapiens, UniProt P50416); assay: (§2) SUPPLEMENTARY: Inhibition of Carnitine palmitoyltransferase 1, liver isoform
T3 sequence (P50416 whole entry): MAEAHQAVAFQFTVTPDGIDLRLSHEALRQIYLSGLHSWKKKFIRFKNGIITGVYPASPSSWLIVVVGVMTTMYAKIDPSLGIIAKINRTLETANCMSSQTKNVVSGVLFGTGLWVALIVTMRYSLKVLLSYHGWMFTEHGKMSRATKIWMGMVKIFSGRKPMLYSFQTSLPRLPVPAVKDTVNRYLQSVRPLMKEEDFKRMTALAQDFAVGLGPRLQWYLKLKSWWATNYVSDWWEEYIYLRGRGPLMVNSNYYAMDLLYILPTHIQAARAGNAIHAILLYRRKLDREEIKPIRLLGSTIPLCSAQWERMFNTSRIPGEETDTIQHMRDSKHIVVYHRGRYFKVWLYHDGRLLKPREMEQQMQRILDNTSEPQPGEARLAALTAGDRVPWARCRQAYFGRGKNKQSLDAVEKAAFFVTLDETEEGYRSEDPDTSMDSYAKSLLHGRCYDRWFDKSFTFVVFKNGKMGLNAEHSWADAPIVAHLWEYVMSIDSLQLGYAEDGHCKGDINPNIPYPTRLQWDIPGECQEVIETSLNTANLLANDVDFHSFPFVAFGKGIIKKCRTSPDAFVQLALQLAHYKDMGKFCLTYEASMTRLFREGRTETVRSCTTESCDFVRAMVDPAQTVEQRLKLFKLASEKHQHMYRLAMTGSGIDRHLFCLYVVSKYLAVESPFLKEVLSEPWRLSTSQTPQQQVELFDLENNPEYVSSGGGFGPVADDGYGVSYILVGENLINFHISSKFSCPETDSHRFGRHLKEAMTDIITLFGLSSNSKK

[6] = target: T4, Carnitine O-palmitoyltransferase 1, liver isoform (Rattus norvegicus, UniProt P32198); assay: as §2
T4 sequence (P32198 whole entry): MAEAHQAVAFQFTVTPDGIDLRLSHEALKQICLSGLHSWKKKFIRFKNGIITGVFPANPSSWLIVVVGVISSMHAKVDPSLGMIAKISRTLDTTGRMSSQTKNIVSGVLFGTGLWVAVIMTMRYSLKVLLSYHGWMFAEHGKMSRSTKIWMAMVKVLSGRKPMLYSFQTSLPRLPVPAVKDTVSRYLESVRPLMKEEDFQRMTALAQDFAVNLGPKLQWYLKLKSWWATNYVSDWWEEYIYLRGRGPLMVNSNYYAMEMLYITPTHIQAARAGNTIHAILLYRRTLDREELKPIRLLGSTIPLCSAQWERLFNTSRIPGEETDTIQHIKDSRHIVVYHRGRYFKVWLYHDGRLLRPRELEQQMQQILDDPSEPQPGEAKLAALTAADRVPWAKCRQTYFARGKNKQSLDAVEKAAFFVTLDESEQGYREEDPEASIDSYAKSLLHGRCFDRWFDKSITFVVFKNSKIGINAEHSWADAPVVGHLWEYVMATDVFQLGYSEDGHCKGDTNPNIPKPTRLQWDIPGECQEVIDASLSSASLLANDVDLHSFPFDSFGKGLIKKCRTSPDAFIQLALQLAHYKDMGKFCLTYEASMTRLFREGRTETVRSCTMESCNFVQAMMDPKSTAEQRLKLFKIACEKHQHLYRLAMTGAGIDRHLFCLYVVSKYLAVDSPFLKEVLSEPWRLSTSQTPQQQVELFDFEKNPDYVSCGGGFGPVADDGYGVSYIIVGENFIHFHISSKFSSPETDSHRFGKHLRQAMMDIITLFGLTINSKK

[7] = target: T5, Carnitine O-palmitoyltransferase 1, muscle isoform (Homo sapiens, UniProt Q92523); assay: SUPPLEMENTARY: Inhibition of Carnitine palmitoyltransferase 1, muscle isoform; parameters: species or system Muscle tissue
T5 sequence (Q92523 whole entry): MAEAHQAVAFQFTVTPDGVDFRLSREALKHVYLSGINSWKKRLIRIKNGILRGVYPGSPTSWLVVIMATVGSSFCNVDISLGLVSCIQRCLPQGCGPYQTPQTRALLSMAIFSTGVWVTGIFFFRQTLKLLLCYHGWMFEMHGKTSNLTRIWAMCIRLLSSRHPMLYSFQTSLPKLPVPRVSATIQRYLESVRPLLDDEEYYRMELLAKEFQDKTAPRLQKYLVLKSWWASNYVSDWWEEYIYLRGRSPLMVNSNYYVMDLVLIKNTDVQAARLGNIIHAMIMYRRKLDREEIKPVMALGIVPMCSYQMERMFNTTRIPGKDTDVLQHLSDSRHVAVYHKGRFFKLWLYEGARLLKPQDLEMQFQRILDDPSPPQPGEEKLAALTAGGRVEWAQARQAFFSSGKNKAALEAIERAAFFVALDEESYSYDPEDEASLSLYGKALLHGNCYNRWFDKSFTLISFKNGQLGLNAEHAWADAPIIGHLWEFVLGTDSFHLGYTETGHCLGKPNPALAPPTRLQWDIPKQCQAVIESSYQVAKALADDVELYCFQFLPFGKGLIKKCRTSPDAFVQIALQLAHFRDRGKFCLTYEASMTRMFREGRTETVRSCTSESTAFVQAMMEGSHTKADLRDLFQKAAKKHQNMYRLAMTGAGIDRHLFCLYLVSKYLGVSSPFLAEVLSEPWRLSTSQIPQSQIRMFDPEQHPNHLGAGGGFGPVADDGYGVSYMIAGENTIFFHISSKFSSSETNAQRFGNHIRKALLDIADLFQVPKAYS

[8] = SUPPLEMENTARY: PAMPA permeability assay; assay type: physicochemical; details: read-out: Permeability

Compound | IC50 [1] [nM] | IC50 [2] [nM] | logD [3] | solubility kinetic [4] [µg/mL] | IC50 [5] [nM] | IC50 [6] [nM] | IC50 [7] [nM] | Papp [8] [×10⁻⁶ cm/s]
COc1ccc(Cl)cc1S(=O)(=O)N(C)c1cc(C(=O)Nc2ccc(C(=O)O)cc2)cc2c1OCCO2 | 29000 | 20700 | 0.58 | > 710 | 219 | 249 | 4050 | 2.54
COc1ccc(Cl)cc1S(=O)(=O)N1CCOc2c(F)cc(C(=O)Nc3ccc(C(=O)O)c(Cl)c3)cc21 | 5740 | 1720 | 0.42 | 380 (≈ 684 µM) | 131 | 166 | 5110 | 1.45
Cc1cc(C)cc(S(=O)(=O)N2CC[S+]([O-])c3ccc(C(=O)Nc4ccc(C(=O)O)cc4)cc32)c1 (configuration not stated) | > 100000 | 1860 | 0.1 | 2 (≈ 4.01 µM) | 59.8 | 57.5 | 37000 | 0.49
CN1CCN(C(=O)COc2ccccc2)[C@@H](c2nc(-c3cccc(C(F)(F)F)c3)n[nH]2)C1 | > 100000 | 94600 | 3.19 | 81 (≈ 182 µM) | 37 | 54.7 | > 100000 | 2.31
COc1ccc(Cl)cc1S(=O)(=O)N1CCc2c(C)cc(C(=O)Nc3ccc(C(=O)O)c(Cl)c3)cc21 | 967 | 591 | 0.66 | 311 (≈ 581 µM) | 66.1 | 157 | 3530 | 1.52
O=C(COc1ccccc1)N1CCCC[C@@H]1c1nc(-c2cc[nH]c(=O)c2)no1 | 88700 | > 100000 | 1.9 | 275 (≈ 723 µM) | 83.4 | 337 | > 100000 | 5.39
O=C(Nc1ccc(-c2nnn[nH]2)cc1)c1cccc(NS(=O)(=O)c2cccc(Cl)c2)c1 | > 100000 | 54600 | 0.5 | 16 (≈ 35.2 µM) | 20.1 | 21.8 | 226 | 0.0275
O=C(Nc1ccc(C(=O)O)c(F)c1)c1ccc2c(c1)N(S(=O)(=O)c1cccc(C(F)(F)F)c1)CC2 | 72200 | 32000 | 2.77 | 9 (≈ 17.7 µM) | 167 | 79.5 | 42200 | 1.99
O=C(COc1ccccc1)N1CCCC[C@@H]1c1noc(-c2cc(Cl)nnc2O)n1 | > 100000 | 23000 | 1.84 | > 509 | 122 | 630 | 72900 | 6.21
COc1ccc(Cl)cc1S(=O)(=O)Nc1cc(C(=O)Nc2ccc(C(=O)O)cc2)cn(C)c1=O | 42400 | 3230 | -0.34 | 13 (≈ 26.4 µM) | 127 | 80.4 | > 100000 | 0.27
O=C(O)c1ccc(NC(=O)c2ccc3c(c2)N(S(=O)(=O)c2cccc(Cl)c2)CC[S+]3[O-])cc1 (configuration not stated) | > 100000 | > 100000 | -0.14 | 3 (≈ 5.94 µM) | 130 | 95.5 | 52200 | 0.28
O=C(COc1ccccc1)N1CCCC[C@@H]1c1noc(-c2cnnc3ccccc23)n1 | 89900 | 18800 | 2.9 | 18 (≈ 43.3 µM) | 49.1 | 136 | > 100000 | 3.59
CC(=O)Nc1cccc(-n2nnc([C@H]3CCCCN3C(=O)COc3ccccc3)n2)c1 | > 100000 | 8060 | 3 | 26 (≈ 61.8 µM) | 111 | 71.4 | > 100000 | 3.5
COc1ccc(Cl)cc1S(=O)(=O)Nc1cc(C(=O)Nc2ccccc2)ccc1/C=C/C(=O)O | > 100000 | > 100000 | 0.36 | > 585 | 136 | 79.8 | 83100 | 1
